Measurements from patent US10131652B2, “Pyrimidinyloxy benzene derivatives as herbicides” (E. I. DU PONT DE NEMOURS AND COMPANY, priority 2014, dated 2018).
Read-outs that look alike come from different tables or passages of the source.

Assays:
Assay in all cases: Test F pre-/postemergence plant response
Assay type in all cases: in vivo
[1] = tested on: hairy beggarticks (Bidens pilosa); conditions: Bidens pilosa, pre-emergence, scale 0 to 100, read-out: Plant response rating, Beggarticks
Text: (§1) Seeds of plant species selected from corn (Zea mays), soybean (Glycine max), velvetleaf (Abutilon theophrasti), lambsquarters (Chenopodium album), wild poinsettia (Euphorbia heterophylla), palmer pigweed (Amaranthus palmeri), waterhemp (common waterhemp, Amaranthus rudis), surinam grass (Brachiaria decumbens), large (Lg) crabgrass (Digitaria sanguinalis), Brazilian crabgrass (Digitaria horizontalis), fall panicum (Panicum dichotomiflorum), giant foxtail (Setaria faberii), green foxtail (Setaria viridis), goosegrass (Eleusine indica), johnsongrass (Sorghum halepense), ragweed (common ragweed, Ambrosia elatior), barnyardgrass (Echinochloa crus-galli), sandbur (southern sandbur, Cenchrus echinatus), arrowleaf sida (Sida rhombifolia), Italian ryegrass (Lolium multiflorum), dayflower (Virginia (VA) dayflower, Commelina virginica), field bindweed (Convolvulus arvensis), cocklebur (common cocklebur, Xanthium strumarium), momingglory (Ipomoea coccinea), nightshade (eastern black nightshade, Solanum ptycanthum), kochia (Kochia scoparia), yellow nutsedge (Cyperus esculentus), and hairy beggarticks (Bidens pilosa), were planted into a silt loam soil and treated preemergence with test chemicals formulated in a non-phytotoxic solvent mixture which included a surfactant.
(§2) At the same time, plants from these crop and weed species and also waterhemp_RES1, (ALS & Triazine resistant common waterhemp, Amaranthus rudis), and waterhemp_RES2, (ALS & HPPD resistant common waterhemp, Amaranthus rudis) were treated with postemergence applications of test chemicals formulated in the same manner. Plants ranged in height from 2 to 18 cm for postemergence treatments (1- to 4-leaf stage).
(§3) Treated plants and controls were maintained in a greenhouse for 14 to 21 days, after which time all species were compared to controls and visually evaluated. Plant response ratings, summarized in Table F, are based on a scale of 0 to 100 where 0 is no effect and 100 is complete control. A dash (-) response means no test result.

[2] = tested on: johnsongrass (Sorghum halepense); conditions: Sorghum halepense, pre-emergence, scale 0 to 100, read-out: Plant response rating, Johnsongrass
Text: as §1, §2, §3

kochia (Kochia scoparia) = conditions: Bassia scoparia, pre-emergence, scale 0 to 100, read-out: Plant response rating, Kochia
Text: as §1, §2, §3

[3] = tested on: nightshade (eastern black nightshade, Solanum ptycanthum); conditions: Solanum, pre-emergence, scale 0 to 100, read-out: Plant response rating, Nightshade
Text: as §1, §2, §3

[4] = tested on: palmer pigweed (Amaranthus palmeri); conditions: Amaranthus palmeri, post-emergence, scale 0 to 100, read-out: Plant response rating, Pigweed, Palmer
Text: as §1, §2, §3

[5] = tested on: ragweed (common ragweed, Ambrosia elatior); conditions: Ambrosia artemisiifolia, pre-emergence, scale 0 to 100, read-out: Plant response rating, Ragweed
Text: as §1, §2, §3

[6] = tested on: velvetleaf (Abutilon theophrasti); conditions: Abutilon theophrasti, pre-emergence, scale 0 to 100, read-out: Plant response rating, Velvetleaf
Text: as §1, §2, §3

[7] = tested on: waterhemp (common waterhemp, Amaranthus rudis); conditions: Amaranthus tuberculatus, scale 0 to 100, read-out: Plant response rating, Waterhemp
Text: as §1, §2, §3

[8] = tested on: wild poinsettia (Euphorbia heterophylla); conditions: Euphorbia heterophylla, scale 0 to 100, read-out: Plant response rating, Poinsettia, Wild
Text: as §1, §2, §3

[9] = tested on: yellow nutsedge (Cyperus esculentus); conditions: Cyperus, pre-emergence, scale 0 to 100, read-out: Plant response rating, Nutsedge, Yellow
Text: as §1, §2, §3

[10] = post-emergence, 8 g ai/ha Postemergence
[11] = post-emergence, 16 g ai/ha Postemergence
[12] = post-emergence, 31 g ai/ha Postemergence
[13] = post-emergence, 62 g ai/ha Postemergence
[14] = post-emergence, 125 g ai/ha Postemergence
[15] = pre-emergence, 8 g ai/ha Preemergence
[16] = pre-emergence, 16 g ai/ha Preemergence
[17] = pre-emergence, 31 g ai/ha Preemergence
[18] = pre-emergence, 125 g ai/ha Preemergence

Question: Which results are given for `FC(F)c1cc(-c2ccccc2Oc2ncc(Cl)cn2)no1` [Compound 35, 5-chloro-2-[2-[5-(difluoromethyl)-3-isoxazolyl]phenoxy]pyrimidine]?
Answer: pest or weed control at 31 g/ha ([1]; 31 g ai/ha Preemergence): 20%; pest or weed control at 62 g/ha ([1]; 62 g ai/ha Preemergence): 20%; pest or weed control at 125 g/ha ([1]; 125 g ai/ha Preemergence): 50%; pest or weed control at 8 g/ha ([2]; 8 g ai/ha Preemergence): 0%; pest or weed control at 16 g/ha ([2]; 16 g ai/ha Preemergence): 0%; pest or weed control at 31 g/ha ([2]; 31 g ai/ha Preemergence): 0%; pest or weed control at 125 g/ha ([2]; 125 g ai/ha Preemergence): 65%; pest or weed control at 62 g/ha ([2]; Preemergence): 35%; pest or weed control at 8 g/ha (kochia (Kochia scoparia); 8 g ai/ha Preemergence): 0%; pest or weed control at 16 g/ha (kochia (Kochia scoparia); 16 g ai/ha, Preemergence): 40%; pest or weed control at 31 g/ha (kochia (Kochia scoparia); 31 g ai/ha, Preemergence): 85%; pest or weed control at 125 g/ha (kochia (Kochia scoparia); 125 g ai/ha, Preemergence): 100%; pest or weed control at 62 g/ha (kochia (Kochia scoparia); Preemergence): 100%; pest or weed control at 8 g/ha ([3]; 8 g ai/ha Preemergence): 75%; pest or weed control at 16 g/ha ([3]; 16 g ai/ha Preemergence): 95%; pest or weed control at 31 g/ha ([3]; 31 g ai/ha Preemergence): 98%; pest or weed control at 125 g/ha ([3]; 125 g ai/ha Preemergence): 100%; pest or weed control at 62 g/ha ([3]; Preemergence): 98%; pest or weed control at 8 g/ha ([4]; 8 g ai/ha Postemergence): 60%; pest or weed control at 16 g/ha ([4]; 16 g ai/ha Postemergence): 75%; pest or weed control at 31 g/ha ([4]; 31 g ai/ha Postemergence): 95%; pest or weed control at 62 g/ha ([4]; 62 g ai/ha Postemergence): 100%; pest or weed control at 125 g/ha ([4]; 125 g ai/ha Postemergence): 100%; pest or weed control at 8 g/ha ([5]; 8 g ai/ha Preemergence): 0%; pest or weed control at 16 g/ha ([5]; 16 g ai/ha Preemergence): 0%; pest or weed control at 31 g/ha ([5]; 31 g ai/ha Preemergence): 0%; pest or weed control at 125 g/ha ([5]; 125 g ai/ha Preemergence): 70%; pest or weed control at 62 g/ha ([5]; Preemergence): 40%; pest or weed control at 8 g/ha ([6]; 8 g ai/ha Preemergence): 40%; pest or weed control at 16 g/ha ([6]; 16 g ai/ha Preemergence): 70%; pest or weed control at 31 g/ha ([6]; 31 g ai/ha Preemergence): 70%; pest or weed control at 125 g/ha ([6]; 125 g ai/ha Preemergence): 100%; pest or weed control at 62 g/ha ([6]; Preemergence): 100%; pest or weed control at 8 g/ha [7, 10]: 70%; pest or weed control at 16 g/ha [7, 11]: 85%; pest or weed control at 31 g/ha [7, 12]: 90%; pest or weed control at 62 g/ha [7, 13]: 100%; pest or weed control at 125 g/ha [7, 14]: 100%; pest or weed control at 8 g/ha [7, 15]: 100%; pest or weed control at 16 g/ha [7, 16]: 100%; pest or weed control at 31 g/ha [7, 17]: 100%; pest or weed control at 125 g/ha [7, 18]: 100%; pest or weed control at 62 g/ha ([7]; pre-emergence, Preemergence): 100%; pest or weed control at 8 g/ha [8, 10]: 30%; pest or weed control at 16 g/ha [8, 11]: 40%; pest or weed control at 31 g/ha [8, 12]: 50%; pest or weed control at 62 g/ha [8, 13]: 50%; pest or weed control at 125 g/ha [8, 14]: 80%; pest or weed control at 8 g/ha [8, 15]: 20%; pest or weed control at 16 g/ha [8, 16]: 30%; pest or weed control at 31 g/ha [8, 17]: 35%; pest or weed control at 125 g/ha [8, 18]: 40%; pest or weed control at 62 g/ha ([8]; pre-emergence, Preemergence): 70%; pest or weed control at 8 g/ha ([9]; 8 g ai/ha Preemergence): 0%; pest or weed control at 16 g/ha ([9]; 16 g ai/ha Preemergence): 0%; pest or weed control at 31 g/ha ([9]; 31 g ai/ha Preemergence): 0%; pest or weed control at 125 g/ha ([9]; 125 g ai/ha Preemergence): 35%; pest or weed control at 62 g/ha ([9]; Preemergence): 10%
